From patent publication US9511053B2, “Nitric oxide scavengers” (Baxter International Inc., priority 2004, dated 2016)

Legend:
[1] = NO scavenger assessment: direct measurement of nitric oxide with NO-selective microelectrode; format: biochemical; details: anaerobic, room temperature, phosphate buffer 50 mM pH 7.4
Protocol: The nitric oxide (NO) scavenging activity of various compounds was determined by the direct measurement of nitric oxide. Using a NO-selective microelectrode (World Precision Instruments, ISO-NO Mark II) the nitric oxide concentration was monitored upon the addition of the test compound. The reaction rate constant was calculated for each compound. Test compounds were added in molar excess, and therefore pseudo first-order reaction kinetics were observed. The rate constant (ln ks) for each compound was calculated. Reactions were performed under anaerobic conditions at room temperature, in phosphate buffer (50 mM, pH 7.4).

[2] = Solubility in phosphate buffer; format: physicochemical
Protocol: Synthesis of 1,3-dihydroxy-2-(2-thienyl)-4,4,5,5,-tetramethylimidazolidine (compound 4 where R is compound 4c) was conducted as shown on FIG. 1. Anhydro adduct (compound 3 where R is compound 4c) was synthesized from treatment of 2,3-bis-(hydroxyamino)-2,3-dimetylbutansulfate (compound 1 where R is compound 4c) and 2-thiophenecarboxaldehyde (compound 2 where R is compound 4c) in water and methanol where compound 3 was a stable white solid insoluble in water. Compound 3 was oxidized by lead oxide in chloroform to form blue crystals (compound 4 where R is 4c). […] The nitronyl nitroxide monoradicals (compound 4 where R is compound 4a or 4b) have been tested for nitric oxide scavenge activity as described below in greater detail.

[3] = Stability of the nitronyl nitroxide monoradical on isolation; format: physicochemical; details: after oxidation with manganese dioxide in ether and column chromatography
Protocol: Synthesis of 1,3-Dihydroxy-2-(2,4-dihydroxyphenyl)-4,4,5,5,-tetramethylimidazolidine (compound 4 where R is compound 4a) was conducted as shown in FIG. 1. Anhydro adduct compound 3 where R is compound 4a was synthesized from treatment of 2,3-bis-(hydroxyamino)-2,3-dimetylbutansulfate (compound 1 where R is compound 4a) and 2,4-dihydroxybenzaldehyde (compound 2 where R is compound 4a) in a mixture of water and methanol. The nitronyl nitroxide monoradical (compound 4 where R is compound 4a) was obtained after oxidation of compound 3 (where R is compound 4a) with manganese dioxide in ether. Compound 4 was very unstable where only 2.5 mg of compound 4 was obtained after column chromatography.

[4] = test system: anesthetized rats treated with LPS to induce hypotension; experiment: Hydroxocobalamin animal study: MAP and HR of anesthetized rats treated with LPS to induce hypotension; format: in vivo, Sprague-Dawley rats
Protocol: Applicants have conducted a study to assess the effect of hydroxocobalamin on the mean arterial pressure (MAP) and heart rate (HR) of anesthetized rats that had been treated with LPS to induce hypotension as described in greater detail below.
Three male Sprague-Dawley rats were acutely instrumented with femoral arterial and venous catheters. Rats were initially anesthetized using a 60 mg/kg i.p. dose of Nembutal (sodium pentobarbital.) Each rat was then instrumented with one arterial catheter for blood pressure measurement, and two venous catheters for test article administration, and infusion of Nembutal (0.42 mL/kg/hr) for maintenance of surgical anesthesia. After placement of the catheters, rats were moved to plexiglass boxes to begin hemodynamic measurements. Baseline data were collected for 30 minutes prior to experimental manipulation in order to verify that all rats were properly anesthetized, and that baseline MAP and HR were within acceptable baseline ranges. Following baseline data collection, each rat received a 5 mg/kg intravenous dose of LPS at a rate of 1 mL/min. After achieving a sustained hypotension at approximately 60 minutes after the LPS infusion, one rat received a 6 mL/kg intravenous dose of hydroxocobalamin (14.5 mM in PBS) over a period of one hour. The remaining two rats each received a 4.57 mL/kg intravenous dose of saline over a period of one hour. MAP and HR measurements continued for 2 hours after hydroxocobalamin or saline infusion. Following LPS administration, all three rats received a continuous intravenous administration of Lactated Ringer's solution in order to prevent dehydration (2.4 mL/kg/hr). Due to a limited amount of hydroxocobalamin, it was only possible to dose one animal with this compound.

Compound: CC1(C)N(O)C(c2ccncc2)N(O)C1(C)C [NN-2, 1,3-Dihydroxy-2-(4-pyridyl)-4,4,5,5,-tetramethylimidazolidine]
- Rate of NO Scavenging, ln ks ([1]; Molar ratio scavenger to NO 42:1): 3.7
- Rate of NO Scavenging, ln ks ([1]; Molar ratio scavenger to NO 111:1): 3.4
- solubility in phosphate buffer [2]: soluble in phosphate buffer

Compound: CC1(C)N(O)C(c2ccc(O)cc2O)N(O)C1(C)C [4a, 1,3-Dihydroxy-2-(2,4-dihydroxyphenyl)-4,4,5,5,-tetramethylimidazolidine]
- solubility in phosphate buffer [2]: soluble in phosphate buffer
- stability [3]: very unstable

Compound: CC1(C)N(O)C(c2cccs2)N(O)C1(C)C [NN-3, 1,3-Dihydroxy-2-(2-thienyl)-4,4,5,5,-tetramethylimidazolidine]
- Rate of NO Scavenging, ln ks ([1]; Molar ratio scavenger to NO 71:1): 2.8
- Rate of NO Scavenging, ln ks ([1]; Molar ratio scavenger to NO 126:1): 2.8
- solubility in phosphate buffer [2]: soluble in phosphate buffer

Compound: C/C1=C2/[N-][C@H]([C@H](CC(N)=O)[C@@]2(C)CCC(=O)NC[C@@H](C)OP(=O)([O-])OC2C(O)[C@@H](n3cnc4cc(C)c(C)cc43)O[C@@H]2CO)[C@]2(C)N=C(/C(C)=C3N=C(/C=C4N=C1[C@@H](CCC(N)=O)C\4(C)C)[C@@H](CCC(N)=O)[C@]\3(C)CC(N)=O)[C@@H](CCC(N)=O)[C@]2(C)CC(N)=O.CC(=O)[O-].[Co+3] (some centres unmarked) [Vitamin B12a (acetate)]
- Rate of NO Scavenging, ln ks ([1]; Molar ratio scavenger to NO 33:1): 3.7
- Rate of NO Scavenging, ln ks ([1]; Molar ratio scavenger to NO 47:1): 3.4
- Rate of NO Scavenging, ln ks ([1]; Molar ratio scavenger to NO 142:1): 3.7
- Rate of NO Scavenging, ln ks ([1]; Molar ratio scavenger to NO 277:1): 3.1

Compound: CC1(C)N([O])C(c2ccc(C(=O)O)cc2)=[N+]([O-])C1(C)C [Carboxy-PTIO]
- Rate of NO Scavenging, ln ks ([1]; Molar ratio scavenger to NO 28:1): 3.8
- Rate of NO Scavenging, ln ks ([1]; Molar ratio scavenger to NO 56:1): 3.9
- Rate of NO Scavenging, ln ks ([1]; Molar ratio scavenger to NO 91:1): 3.5
- Rate of NO Scavenging, ln ks ([1]; Molar ratio scavenger to NO 129:1): 3.4

Compound: C/C1=C2/[N-][C@H]([C@H](CC(N)=O)[C@@]2(C)CCC(=O)NC[C@@H](C)OP(=O)([O-])O[C@H]2[C@@H](O)[C@@H](n3cnc4cc(C)c(C)cc43)O[C@@H]2CO)[C@]2(C)N=C(/C(C)=C3N=C(/C=C4N=C1[C@@H](CCC(N)=O)C\4(C)C)[C@@H](CCC(N)=O)[C@]\3(C)CC(N)=O)[C@@H](CCC(N)=O)[C@]2(C)CC(N)=O.[Co+3].[OH-] [hydroxocobalamin]
- MAP below baseline levels ([4]; 60-180 minutes post-LPS (5 mg/kg i.v.), 6 mL/kg i.v. of 14.5 mM in PBS over one hour from 60 min post-LPS, one rat): 10-20 mmHg
- survival ([4]; LPS 5 mg/kg i.v., 6 mL/kg i.v. of 14.5 mM in PBS over one hour, one rat, both saline rats died): survived the entire experiment
- effect on HR and MAP (in words) ([4]; anesthetized rat with LPS-induced hypotension, summary): increased HR and allowed MAP to be maintained
- HR above baseline levels ([4]; from 60 minutes post-LPS infusion, 6 mL/kg i.v. of 14.5 mM in PBS over one hour, one rat): approximately 140 bpm
